Each structure is given as a SMILES string.

The target in the assay is T1, chymopapain (Carica papaya, UniProt P14080).
T1 construct: native mature enzyme from papaya latex, commercial (Sigma C8526), dialysed; monomer; acid-unfolded states in the assay
Briefly: isothermal titration calorimetry (two sets of independent sites). The settings on record: read-out: High affinity binding site / K1 (M^-1). The text has this: isothermal titration calorimetry (two sets of independent sites) on chymopapain

T1 sequence (P14080 135-352): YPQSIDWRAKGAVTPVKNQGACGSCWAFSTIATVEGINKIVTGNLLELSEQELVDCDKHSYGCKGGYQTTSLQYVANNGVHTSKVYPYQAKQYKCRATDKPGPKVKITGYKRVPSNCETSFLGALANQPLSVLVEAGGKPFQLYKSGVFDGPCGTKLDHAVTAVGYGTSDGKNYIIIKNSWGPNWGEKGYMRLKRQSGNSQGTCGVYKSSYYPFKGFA

`O=S(=O)(O)c1cccc2cccc(Nc3ccccc3)c12` [1-anilino-8-naphthalene sulfonate]: the Kd is 2940 nM.

The values are drawn from paper PMC3510187, “1-Anilino-8-Naphthalene Sulfonate (ANS) Is Not a Desirable Probe for Determining the Molten Globule State of Chymopapain” (PLoS ONE, 2012).
